Laboratory results published in article PMC12044326 (Clinical Pharmacology in Drug Development, 2025).

Tests used:
[1] = system: CYP3A4; parameters: method as in PMID 15242978, PMID 9929500; conditions: cited from earlier work
[2] = in vitro; conditions: human, Caco-2
Method: Caco-2 cells were obtained from American Type Culture Collection. Prior to the experiments,
the cells were seeded on 55 cm2 bottom culture dishes (Corning). The cells were cultured at
37°C in a humidified CO2 (5%) incubator and routinely passaged about once a week. Caco-2
cultured in the medium at 37°C in a humidified CO2 (5%) incubator for 23 days to prepare cell
The medium was changed 4 days after seeding and then changed every 2 or 3 days
thereafter. Before the experiment, the integrity of the Caco-2 cell monolayer was checked by
measuring the trans-epithelial electrical resistance (TEER) value. The TEER values of cell
In the transport experiments, the medium of top side of the cells (apical side) and basal
side of the cells (basal side) were replaced with the DMSO-HBSS solution, the inhibitor-HBSS
control), or the test solutions (digoxin and mannitol as substrates). The volumes of the replaced
solutions were 300 μL for the apical side and 1 mL for the basal side. The DMSO-HBSS […]
of the solution in each basal side (receiver side) were collected and measured for the
radioactivity using an LSC. […]
collected and measured for the radioactivity using an LSC. […]
side (receiver side) were collected and measured for the radioactivity using an LSC. […]
in each apical side and each basal side (donor side) were collected and measured for the
radioactivity using an LSC.

Structure (SMILES) | CYP3A4 inhibitor potency over ketoconazole [1] | Papp [2]
CCC(C)n1ncn(-c2ccc(N3CCN(c4ccc(OCC5COC(Cn6cncn6)(c6ccc(Cl)cc6Cl)O5)cc4)CC3)cc2)c1=O (centres unmarked) [itraconazole] | ~10 fold | 
CC(C)NCC(O)COc1cccc2ccccc12 (centres unmarked) [propranolol, reference compound] |  | 27.8 ×10⁻⁶ cm/s
